For the first assay, the target named is T1, LRRK2 (Homo sapiens, UniProt Q5S007, G2019S).
T1 construct: purchased Invitrogen PV4882 (lot 567054A)
T1 sequence (Q5S007 whole entry G2019S): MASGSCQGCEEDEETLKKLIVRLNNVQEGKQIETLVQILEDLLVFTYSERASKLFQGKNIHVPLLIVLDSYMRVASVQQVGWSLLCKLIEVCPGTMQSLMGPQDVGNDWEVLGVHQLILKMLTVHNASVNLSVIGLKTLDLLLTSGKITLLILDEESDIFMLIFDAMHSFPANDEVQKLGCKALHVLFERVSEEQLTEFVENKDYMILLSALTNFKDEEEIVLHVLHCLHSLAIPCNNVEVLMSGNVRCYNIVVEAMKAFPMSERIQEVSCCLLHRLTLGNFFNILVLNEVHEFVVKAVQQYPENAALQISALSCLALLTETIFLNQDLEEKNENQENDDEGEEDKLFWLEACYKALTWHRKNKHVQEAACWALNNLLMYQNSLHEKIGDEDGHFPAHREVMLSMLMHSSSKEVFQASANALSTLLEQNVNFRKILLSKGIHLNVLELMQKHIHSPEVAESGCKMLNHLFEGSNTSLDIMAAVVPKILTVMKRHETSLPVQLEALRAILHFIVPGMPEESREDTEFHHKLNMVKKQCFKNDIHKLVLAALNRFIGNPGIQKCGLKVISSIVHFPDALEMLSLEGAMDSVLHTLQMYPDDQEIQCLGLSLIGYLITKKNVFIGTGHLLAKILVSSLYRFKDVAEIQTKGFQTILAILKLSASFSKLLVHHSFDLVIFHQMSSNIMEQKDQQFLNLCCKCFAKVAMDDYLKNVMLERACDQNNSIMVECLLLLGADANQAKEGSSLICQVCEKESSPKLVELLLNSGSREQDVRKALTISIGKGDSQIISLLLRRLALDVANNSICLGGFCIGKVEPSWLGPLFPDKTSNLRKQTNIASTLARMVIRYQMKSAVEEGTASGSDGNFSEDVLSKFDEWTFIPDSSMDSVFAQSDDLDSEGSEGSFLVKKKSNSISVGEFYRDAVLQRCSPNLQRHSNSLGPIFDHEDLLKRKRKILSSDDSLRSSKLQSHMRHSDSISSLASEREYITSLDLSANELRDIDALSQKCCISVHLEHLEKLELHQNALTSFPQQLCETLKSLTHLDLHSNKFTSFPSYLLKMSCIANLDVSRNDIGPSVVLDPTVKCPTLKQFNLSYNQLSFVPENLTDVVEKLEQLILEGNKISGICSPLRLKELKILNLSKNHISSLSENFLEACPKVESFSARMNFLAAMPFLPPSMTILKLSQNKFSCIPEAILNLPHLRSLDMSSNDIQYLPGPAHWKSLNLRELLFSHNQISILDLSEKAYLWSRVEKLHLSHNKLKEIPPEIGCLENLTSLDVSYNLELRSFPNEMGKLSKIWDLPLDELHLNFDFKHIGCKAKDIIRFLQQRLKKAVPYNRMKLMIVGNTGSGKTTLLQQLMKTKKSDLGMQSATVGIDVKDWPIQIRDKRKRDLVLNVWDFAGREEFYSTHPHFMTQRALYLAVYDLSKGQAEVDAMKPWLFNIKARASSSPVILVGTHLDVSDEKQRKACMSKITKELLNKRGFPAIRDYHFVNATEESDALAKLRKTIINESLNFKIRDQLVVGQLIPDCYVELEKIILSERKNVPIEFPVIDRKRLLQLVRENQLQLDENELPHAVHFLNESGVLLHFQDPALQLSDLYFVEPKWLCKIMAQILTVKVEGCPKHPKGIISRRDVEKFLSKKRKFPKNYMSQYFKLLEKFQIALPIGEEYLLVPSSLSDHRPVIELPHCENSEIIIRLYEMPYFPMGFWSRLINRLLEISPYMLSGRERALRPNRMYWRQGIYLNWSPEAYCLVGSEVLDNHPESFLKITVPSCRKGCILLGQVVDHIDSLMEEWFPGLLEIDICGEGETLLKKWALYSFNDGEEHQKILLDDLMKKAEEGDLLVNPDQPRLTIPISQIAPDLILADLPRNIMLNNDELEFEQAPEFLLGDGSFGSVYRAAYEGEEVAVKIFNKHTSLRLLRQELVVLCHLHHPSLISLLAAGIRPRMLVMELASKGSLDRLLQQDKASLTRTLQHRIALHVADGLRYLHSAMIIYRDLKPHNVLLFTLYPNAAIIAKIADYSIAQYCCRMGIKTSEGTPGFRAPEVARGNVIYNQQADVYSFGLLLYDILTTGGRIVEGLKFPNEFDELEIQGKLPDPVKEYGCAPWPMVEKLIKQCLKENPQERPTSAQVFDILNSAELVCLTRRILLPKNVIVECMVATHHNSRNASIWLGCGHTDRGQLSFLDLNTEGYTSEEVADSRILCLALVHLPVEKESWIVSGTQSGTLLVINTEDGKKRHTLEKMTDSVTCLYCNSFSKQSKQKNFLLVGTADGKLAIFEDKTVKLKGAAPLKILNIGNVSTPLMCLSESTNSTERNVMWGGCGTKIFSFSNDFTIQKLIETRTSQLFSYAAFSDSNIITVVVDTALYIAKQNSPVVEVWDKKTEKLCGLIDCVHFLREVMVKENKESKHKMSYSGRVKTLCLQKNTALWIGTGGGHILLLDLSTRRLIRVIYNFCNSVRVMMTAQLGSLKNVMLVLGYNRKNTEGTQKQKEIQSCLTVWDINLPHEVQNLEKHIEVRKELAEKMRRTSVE
Description: In Vitro LRRK2 Assay (LabChip 3000, fluorescently-labeled peptide substrate, ATP). It is filed as biochemical. The following applies: Table 9; LRRK2 Ki (micromolar); read-out: LRRK2 Ki (KI). The protocol:
This assay was used to determine a compound's potency in inhibiting activity of LRRK2 by determining, Kiapp, IC50, or percent inhibition values. In a polypropylene plate, LRRK2, fluorescently-labeled peptide substrate, ATP and test compound were incubated together. Using a LabChip 3000 (Caliper Life Sciences), after the reaction the substrate was separated by capillary electrophoresis into two populations: phosphorylated and unphosphorylated. The relative amounts of each were quantitated by fluorescence intensity. LRRK2 Ki was determined according to the equation: Y=V0*(1−(x+Ki*(1+S/Km)+Et)/(2*Et)−(((x+Ki*(1+S/Km)+Et)^2−(4*Et*x))^0.5)/(2*Et))). Ki values in Table 4 and elsewhere herein are shown in μM.
Assay conditions and materials used were as follows:
Compound Plate Preparation:
For serial dilutions, 34.6 μl DMSO was added to columns 3-24.
Total and Blank Preparation:
In Complete Reaction Buffer, substrate was diluted to 4 μM. Equal volumes of Complete Reaction Buffer and 4 μM substrate were combined to obtain the blank. Equal volumes of Complete Reaction Buffer and 4 μM substrate were combined and to the combined solution was added 2× final LRRK2 concentration.
To a 50 μl polypropylene plate, 5 μl/well buffer/substrate was added by hand to Blank wells. A Biomek FX was used to start the kinase reaction (“PLK SAR 23 ATP”). The following were added to the appropriate wells:
5 μl/well compound/ATP in Assay Plate;
5 μl/well kinase/substrate in Assay Plate;
The plate was incubated for 2 hours in the dark. Biomek FX was used to stop the kinase reaction (“PLK Stop”), and 10 μl/well Stop solution was added to the Assay Plate. Results were read on the LabChip 3000.
The LabChip 3000 was run using the job “LRRK2 IC50” with the following job settings: […]
For orientation: Ki means the dissociation constant of the complex between target and ligand, obtained from inhibition or displacement. In the case of `CNc1nc(Nc2cn(C3CCC(F)(F)CC3)nc2C)ncc1C#N` [Example 392, 2-[1-(4,4-Difluoro-cyclohexyl)-3-methyl-1H-pyrazol-4-ylamino]-4-methylamino-pyrimidine-5-carbonitrile], the Ki came to 266 nM. The same measure, in the same setting: next, `CNc1nc(Nc2cnn(C3COC3)c2C)ncc1C#N` [Example 388, 4-Methylamino-2-(5-methyl-1-oxetan-3-yl-1H-pyrazol-4-ylamino)-pyrimidine-5-carbonitrile]: 32.2 nM. On to `CNc1nc(Nc2cn(C3CCOCC3)nc2C)ncc1C#N` [Example 362, 2-(3-methyl-1-(tetrahydro-2H-pyran-4-yl)-1H-pyrazol-4-ylamino)-4-(methylamino) pyrimidine-5-carbonitrile], for which the Ki was determined as 86 nM.

Staying with this assay, now noted: Table 10; LRRK2 Ki (micromolar); read-out: LRRK2 Ki (KI).
As to `CNc1nc(Nc2cnn([C@H](C)C(=O)N3CCCC3)c2C)ncc1C(F)(F)F` [Example 411, (R)-2-(5-methyl-4-(4-(methylamino)-5-(trifluoromethyl)pyrimidin-2-ylamino)-1H-pyrazol-1-yl)-1-(pyrrolidin-1-yl)propan-1-one], the Ki came to 39 nM.

The assay is the same for the next values; noted with them: read-out: LRRK2 Ki (KI), Table 7.
In the case of `COc1nc(Nc2cn(C3CCN(CCF)CC3)nc2C)ncc1Cl` [Example 86, (5-Chloro-4-methoxy-pyrimidin-2-yl)-{1-[1-(2-fluoro-ethyl)-piperidin-4-yl]-3-methyl-1H-pyrazol-4-yl}-amine], the Ki came to 183 nM. Consider `CCn1cc(Nc2ncc(Cl)c(OC)n2)c(C)n1` [Example 26, 5-Chloro-N-(1-ethyl-3-methyl-1H-pyrazol-4-yl)-4-methoxy-pyrimidin-2-amine], for which the Ki was found to be 13 nM. On to `COc1nc(Nc2cnn(-c3ccccc3)c2C)ncc1Cl` [Example 56, 5-chloro-4-methoxy-N-(5-methyl-1-phenyl-1H-pyrazol-4-yl)pyrimidin-2-amine], for which the Ki was 27 nM.

Turning to `Cc1c(Nc2ncc(C(F)(F)F)c(N3CCCC3)n2)cnn1C` [Example 13, N-(1,5-dimethyl-1H-pyrazol-4-yl)-4-(pyrrolidin-1-yl)-5-(trifluoromethyl) pyrimidin-2-amine], the Ki turned out to be 12 nM. On the same count and under the same terms, the same measure for `CNc1nc(Nc2cn(C3COC3)nc2C)ncc1Cl` [Example 27, 5-Chloro-N^4-methyl-N^2-(3-methyl-1-(oxetan-3-yl)-1H-pyrazol-4-yl)pyrimidine-2,4-diamine]: 8.8 nM.

The assay is the same for the next values; noted with them: read-out: LRRK2 Ki (KI), Table 8.
As for `CCNc1nc(Nc2cnn(-c3ccc(C(=O)N(C)C)cc3)c2C)ncc1C(F)(F)F` [Example 157, 4-(4-(4-(ethylamino)-5-(trifluoromethyl)pyrimidin-2-ylamino)-5-methyl-1H-pyrazol-1-yl)-N,N-dimethylbenzamide], the Ki was 0.3 nM. With `CNc1nc(Nc2cn(CC3(C)COC3)nc2C)ncc1C(F)(F)F` [Example 118, N4-methyl-N2-(3-methyl-1-((3-methyloxetan-3-yl)methyl)-1H-pyrazol-4-yl)-5-(trifluoromethyl) pyrimidine-2,4-diamine], the Ki was determined as 7.2 nM. On to `CCNc1nc(Nc2cn([C@H]3CCCN(C4COC4)C3)nc2C)ncc1C(F)(F)F` [Example 308, N4-Ethyl-N2-[3-methyl-1-((S)-1-oxetan-3-yl-piperidin-3-yl)-1H-pyrazol-4-yl]-5-trifluoromethyl-pyrimidine-2,4-diamine], for which the Ki stood at 8.5 nM. On to `CCNc1nc(Nc2cnn(CC3(C)COC3)c2C)ncc1C(F)(F)F` [Example 169, N4-ethyl-N2-(5-methyl-1-((3-methyloxetan-3-yl)methyl)-1H-pyrazol-4-yl)-5-(trifluoromethyl) pyrimidine-2,4-diamine], for which the Ki was 2.2 nM. The same measure, in the same setting: the same measure for `CNc1nc(Nc2cnn(-c3ccc(Cl)cc3)c2C)ncc1Br` [Example 122, 5-bromo-N2-(1-(4-chlorophenyl)-5-methyl-1H-pyrazol-4-yl)-N4-methylpyrimidine-2,4-diamine]: 14 nM. The same measure, in the same setting: next, `CNc1nc(Nc2cn(CC(F)(F)F)nc2C)ncc1C(F)(F)F` [Example 254, N4-Methyl-N2-[3-methyl-1-(2,2,2-trifluoro-ethyl)-1H-pyrazol-4-yl]-5-trifluoromethyl-pyrimidine-2,4-diamine]: 7.7 nM; `CNc1nc(Nc2cn(C3CCN(C)CC3F)nc2C)ncc1C(F)(F)F` (stereo not shown) [Example 222, N2-(1-(3-fluoro-1-methylpiperidin-4-yl)-3-methyl-1H-pyrazol-4-yl)-N4-methyl-5-(trifluoromethyl) pyrimidine-2,4-diamine]: 1.6 nM. `CCNc1nc(Nc2cn(-c3ccc(S(C)(=O)=O)cc3)nc2C)ncc1C(F)(F)F` [Example 266, N4-Ethyl-N2-[1-(4-methanesulfonyl-phenyl)-3-methyl-1H-pyrazol-4-yl]-5-trifluoromethyl-pyrimidine-2,4-diamine]: the Ki was 2.1 nM. Still for that read-out and setting: the same measure for `CNc1nc(Nc2cn(C3CCN(CC(F)(F)F)CC3)nc2C)ncc1Br` [Example 94, 5-bromo-N4-methyl-N2-(3-methyl-1-(1-(2,2,2-trifluoroethyl)piperidin-4-yl)-1H-pyrazol-4-yl)pyrimidine-2,4-diamine]: 13 nM; for `CCNc1nc(Nc2cnn(-c3ccc(C#N)cc3)c2C)ncc1C(F)(F)F` [Example 162, 4-(4-(4-(ethylamino)-5-(trifluoromethyl)pyrimidin-2-ylamino)-5-methyl-1H-pyrazol-1-yl)benzonitrile]: 0.3 nM. As for `CCNc1nc(Nc2cn(-c3ccc(S(=O)(=O)C4CC4)cc3)nc2C)ncc1C(F)(F)F` [Example 264, N2-[1-(4-Cyclopropane-sulfonyl-phenyl)-3-methyl-1H-pyrazol-4-yl]-N4-ethyl-5-trifluoromethyl-pyrimidine-2,4-diamine], the Ki stood at 3.2 nM. The same measure, in the same setting: the same measure for `CCNc1nc(Nc2cn(C3CCN(CCOC)CC3)nc2C)ncc1C(F)(F)F` [Example 282, N4-Ethyl-N2-{1-[1-(2-methoxy-ethyl)-piperidin-4-yl]-3-methyl-1H-pyrazol-4-yl}-5-trifluoromethyl-pyrimidine-2,4-diamine]: 5.4 nM. Consider `CCNc1nc(Nc2cn(C(C)(C)c3nncn3C)nc2C)ncc1C(F)(F)F` [Example 337, N4-ethyl-N2-(3-methyl-1-(2-(4-methyl-4H-1,2,4-triazol-3-yl)propan-2-yl)-1H-pyrazol-4-yl)-5-(trifluoromethyl) pyrimidine-2,4-diamine], for which the Ki was 7.6 nM. For `CCNc1nc(Nc2cnn(CC(C)(C)O)c2C)ncc1C(F)(F)F` [Example 296, 1-[4-(4-Ethylamino-5-trifluoromethyl-pyrimidin-2-ylamino)-5-methyl-pyrazol-1-yl]-2-methyl-propan-2-ol], the Ki is 2.3 nM. On to `CNc1nc(Nc2cn(C[C@H](C)OC)nc2C)ncc1C(F)(F)F` [Example 189, (S)-N2-(1-(2-methoxypropyl)-3-methyl-1H-pyrazol-4-yl)-N4-methyl-5-(trifluoromethyl) pyrimidine-2,4-diamine], for which the Ki turned out to be 11.8 nM.

For `CCNc1nc(Nc2cn(S(C)(=O)=O)nc2C)ncc1C(F)(F)F` [Example 160, N4-ethyl-N2-(3-methyl-1-(methylsulfonyl)-1H-pyrazol-4-yl)-5-(trifluoromethyl) pyrimidine-2,4-diamine], the Ki is 0.3 nM. The same measure, in the same setting: the same measure for `CNc1nc(Nc2cn([C@H]3CCN(C4COC4)C3)nc2C)ncc1C(F)(F)F` [Example 276, N4-Methyl-N2-[3-methyl-1-((S)-1-oxetan-3-yl-pyrrolidin-3-yl)-1H-pyrazol-4-yl]-5-trifluoromethyl-pyrimidine-2,4-diamine]: 3.9 nM.

For `CCNc1nc(Nc2cn(C3CCC(=O)N(C)C3)nc2C)ncc1C(F)(F)F` (stereo not shown) [Example 152, 5-(4-(4-(ethylamino)-5-(trifluoromethyl)pyrimidin-2-ylamino)-3-methyl-1H-pyrazol-1-yl)-1-methylpiperidin-2-one], the Ki is 7.3 nM.

As for `CCNc1nc(Nc2cnn(C3CCC(=O)N(C)C3)c2C)ncc1C(F)(F)F` (stereo not shown) [Example 151, 5-(4-(4-(ethylamino)-5-(trifluoromethyl)pyrimidin-2-ylamino)-5-methyl-1H-pyrazol-1-yl)-1-methylpiperidin-2-one], the inhibition constant (Ki) was found to be 1.1 nM. The same measure, in the same setting: next, `CNc1nc(Nc2cn(C3CCCOC3)nc2C)ncc1C(F)(F)F` (stereo not shown) [Example 230, N4-methyl-N2-(3-methyl-1-(tetrahydro-2H-pyran-3-yl)-1H-pyrazol-4-yl)-5-(trifluoromethyl) pyrimidine-2,4-diamine]: 9.6 nM; `CNc1nc(Nc2cnn(C3CCCC3O)c2C)ncc1C(F)(F)F` (stereo not shown) [Example 334, 2-[5-Methyl-4-(4-methylamino-5-trifluoromethyl-pyrimidin-2-ylamino)-pyrazol-1-yl]-cyclopentanol]: 6.3 nM; `CCNc1nc(Nc2cn(C(C)(C)c3ccn(C)n3)nc2C)ncc1C(F)(F)F` [Example 342, N4-ethyl-N2-(3-methyl-1-(2-(1-methyl-1H-pyrazol-3-yl)propan-2-yl)-1H-pyrazol-4-yl)-5-(trifluoromethyl) pyrimidine-2,4-diamine]: 21.7 nM.

These data come from patent US8815882B2, “Pyrazole aminopyrimidine derivatives as LRRK2 modulators” (Genentech, Inc., priority 2010, dated 2014).
